One data set deals with Heat shock protein HSP90 (Homo sapiens, UniProt P07900+P08238). Kind of data set: Inhibition of HSP90 (unknown origin). In kind it is protein assay.
A further data set concerns the target CDK8/Cyclin C (Homo sapiens, UniProt P49336). Briefly: Inhibition of CDK8/Cyclin C (unknown origin) using RBER-IRStide as substrate by radiometric assay. The format is protein-complex assay.
The nature of data set [1]: Antiproliferative activity against HUVEC cells assessed as inhibition of cell growth. In kind it is toxicity, cell-based. The conditions noted are these: human.
Data set [2] has as its target T1, Cyclin-dependent kinase 8 (Homo sapiens, UniProt P49336). Kind of data set: Inhibition of CDK8 (unknown origin).
The test system of a further data set is HCT-116. Briefly: Anticancer activity against human HCT-116 cells assessed as inhibition of cell growth by SRB assay. The format is functional, cell-based. (In general: The SRB assay estimates cell density from bound dye.)
Data set [3] addresses T1, Cyclin-dependent kinase 8. Briefly: Binding affinity to CDK8 (unknown origin).

Bounds are passed on as bounds.

Drawing on ChEMBL document CHEMBL5241055, “Angel or Devil ? - CDK8 as the new drug target” (Eur J Med Chem, 2021), this text covers IC50 and Kd for 15 compounds.

One may read the IC50 as the midpoint of a concentration-inhibition curve. Usually Kd stands for the constant that tells how readily two partners part at equilibrium. Read a low Kd as higher affinity.

Sequence of CDK8/Cyclin C (P49336 whole entry): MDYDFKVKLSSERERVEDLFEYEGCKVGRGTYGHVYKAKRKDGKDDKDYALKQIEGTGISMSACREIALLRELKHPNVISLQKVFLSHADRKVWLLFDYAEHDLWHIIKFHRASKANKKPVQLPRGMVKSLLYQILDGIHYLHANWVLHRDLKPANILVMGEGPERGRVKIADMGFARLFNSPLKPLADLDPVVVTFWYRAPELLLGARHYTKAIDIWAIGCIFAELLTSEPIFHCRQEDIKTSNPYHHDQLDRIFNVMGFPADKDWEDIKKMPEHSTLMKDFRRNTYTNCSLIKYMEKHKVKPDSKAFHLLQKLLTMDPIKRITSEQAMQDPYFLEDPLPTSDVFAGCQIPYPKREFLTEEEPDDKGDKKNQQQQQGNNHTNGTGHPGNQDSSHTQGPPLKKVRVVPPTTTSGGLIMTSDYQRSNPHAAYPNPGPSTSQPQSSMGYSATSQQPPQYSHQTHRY
Sequence of CDK8/Cyclin C (P24863 whole entry, further chain): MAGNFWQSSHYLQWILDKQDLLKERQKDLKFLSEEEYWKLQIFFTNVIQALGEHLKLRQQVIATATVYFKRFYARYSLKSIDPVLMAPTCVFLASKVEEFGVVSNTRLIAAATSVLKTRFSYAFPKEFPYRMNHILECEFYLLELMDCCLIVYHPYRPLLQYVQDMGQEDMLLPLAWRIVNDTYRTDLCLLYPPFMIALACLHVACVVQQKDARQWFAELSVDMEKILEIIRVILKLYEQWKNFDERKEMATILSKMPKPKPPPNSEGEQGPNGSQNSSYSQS
T1 sequence (P49336 whole entry): as the sequence (P49336 whole entry) above

As to `CNC(=O)c1ccc2[nH]nc(Cc3ccc4c(cnn4C)c3)c2c1`, at Heat shock protein HSP90, the IC50 was above 10000 nM.
`N#Cc1ccc2ncnc(NCCc3ccccc3)c2c1` showed an IC50 at CDK8/Cyclin C of 640 nM.
`CCCNc1ncnc2ccc(Br)cc12` returned an IC50 at CDK8/Cyclin C of 6100 nM.
Take `Cc1cnccc1/C=C/[C@@H](C)[C@H]1CC[C@@H]2[C@]1(C)CCC1=CC3=CC[C@@H](N(C)C)C[C@]34CC[C@@]12O4`: the IC50 in data set [1] was found to be 800 nM.
Turning to `CN(C)[C@@H]1C=CC2=CC3=CC[C@]4(C)[C@@H](c5ccc6ccncc6c5)CC[C@H]4[C@@]34CC[C@]2(C1)O4`, in data set [1], the IC50 came to 8 nM.
Turning to `CC1CN(C)CCC1CCC(C)[C@H]1CC[C@@H]2[C@]1(C)CC=C1C=C3C=C[C@@H](N(C)C)C[C@]34CC[C@@]12O4` (stereo partly specified), in data set [1], the IC50 turned out to be 1900 nM.
As for `Cc1cccc(Cc2n[nH]c3cc(O)c(C(=O)N4Cc5ccccc5C4)cc23)c1`, the IC50 on Heat shock protein HSP90 is 110 nM; in data set [2], 15 nM.
For the compound `CN(C)[C@H]1C[C@@]23CC[C@@]4(O2)C(=CC[C@@]2(C)[C@H]4CC(=O)[C@]2(O)c2ccc4ccncc4c2)C=C3[C@@H](O)[C@@H]1O`, the IC50 in data set [1] stood at 150 nM.
At CDK8/Cyclin C, `N#Cc1ccc2ncnc(NCCc3ccc4ccccc4c3)c2c1` returned an IC50 of 740 nM.
For `Cc1cnccc1CC[C@@H](C)[C@H]1CC[C@@H]2[C@]1(C)CCC1=CC3=CC[C@@H](N(C)C)C[C@]34CC[C@@]12O4`, the IC50 in data set [1] turned out to be 350 nM.
Same read-out and setting: as for `CN(C)[C@H]1C[C@@]23CC[C@@]4(O2)C(=CC[C@@]2(C)[C@H]4C[C@H](O)[C@@H]2c2ccc4ccncc4c2)C=C3[C@@H](O)[C@@H]1O`, the figure is 1100 nM.
In the case of `COc1ccc(/C=N/c2ncc(-c3cc4ccccc4oc3=O)o2)cc1O`, the 50% inhibitory concentration (IC50) in the data set with HCT-116 was found to be 71800 nM.
In turn, `Cc1ccc(-n2nc(C(C)(C)C)cc2NC(N)=O)cc1` had a Kd in data set [3] of 3240 nM.
In the case of `CC1CN(C)CCC1CC[C@@H](C)[C@H]1CC[C@@H]2[C@]1(C)CCC1=CC3=CC[C@@H](N(C)C)C[C@]34CC[C@@]12O4` (stereo partly specified), the concentration for half-maximal inhibition (IC50) in data set [1] turned out to be 450 nM.
On the same count and under the same terms, as for `CN(C)[C@H]1C[C@@]23CC[C@@]4(O2)C(=CC[C@]2(C)[C@@H](c5ccc6ccncc6c5)C(=O)C[C@H]24)C=C3[C@@H](O)[C@@H]1O`, the figure is 19 nM.
